Results taken from patent US8658797B2, “Asymmetric ureas and medical uses thereof” (Helsinn Healthcare SA, priority 2011, dated 2014).
pIC50: −log10 of the molar value.

What was measured:
GHSR-1a [1] = target: T1, GHSR-1a (Homo sapiens, UniProt Q92847); experiment: Calcium FLIPR assay, GHSR-1a antagonism (reduction of ghrelin response); format: cell-based; settings: HEK293/GHSR1a cell line; ghrelin 10 nM; read-out: IC50 FLIPR antagonist Activity
T1 construct: expressed in transfected cells; host or cells: HEK293
Protocol: (§1) The intracellular calcium assay was carried out in a 384-well format FLIPR™ (Molecular Device) HEK293/GHSR1a cell line. Cells were seeded 24 hr prior to the experiments at an optimal density per well. Preincubation with selected calcium dye lasted for 30-60 min at room temperature or 37° C. Test compounds, dissolved in DMSO, were added at the appropriate time and incubated for 15 min followed by the addition of ghrelin with FlexStation or FLIPR. Relative fluorescence was monitored by the FLIPR™ Molecular Device. EC50 and IC50 values were estimated from dose-response data using GraphPad Prism software. To check for GHSR-1a agonism the compound was added at t=20 sec. and the calcium response was followed for 2 minutes. To check for GHSR-1a antagonism the compound and Ghrelin (10 nM) were added to the cells at t=20 sec. and the calcium response was measured for 2 minutes. The potency of the antagonist was calculated by its ability to reduce the ghrelin response. Dose-response curves were made for relevant antagonists.

Male C57BL/6J mice = experiment: Evaluation of GHSR1a antagonists on food intake test in mouse; format: in vivo; settings: for Mouse Food Intake effect: NSE: not significant effect
Protocol: Male C57BL/6J mice, 18-22 g body weight, were fasted overnight (16 h before compound administration) and placed in a regular light dark cycle (6:00-18:00 light/18:00-6:00 dark). After 1 wk acclimation, animals were sorted into two groups (n=6 each, 2 per cage) based on body weight. Animals in group one were be treated with vehicle and animals in group 2 were treated with the test agent (n=6 for each group). The cumulative food intake was evaluated at 1, 2, 4, 8 and 24 hrs after drug or vehicle treatment. Food intake was measured by subtracting uneaten food from the initial premeasured food.

GHSR-1a [2] = target: T1, GHSR-1a; experiment: Calcium FLIPR assay, GHSR-1a agonism; format: cell-based; settings: HEK293/GHSR1a cell line; read-out: EC50 FLIPR against Activity (EC50 part of μM/Emax)
Protocol: as §1

[3] = Mus musculus, ip, 10 mg/kg i.p., at 1 hr
[4] = Mus musculus, ip, 30 mg/kg i.p., at 1 hr

T1 sequence (Q92847 whole entry): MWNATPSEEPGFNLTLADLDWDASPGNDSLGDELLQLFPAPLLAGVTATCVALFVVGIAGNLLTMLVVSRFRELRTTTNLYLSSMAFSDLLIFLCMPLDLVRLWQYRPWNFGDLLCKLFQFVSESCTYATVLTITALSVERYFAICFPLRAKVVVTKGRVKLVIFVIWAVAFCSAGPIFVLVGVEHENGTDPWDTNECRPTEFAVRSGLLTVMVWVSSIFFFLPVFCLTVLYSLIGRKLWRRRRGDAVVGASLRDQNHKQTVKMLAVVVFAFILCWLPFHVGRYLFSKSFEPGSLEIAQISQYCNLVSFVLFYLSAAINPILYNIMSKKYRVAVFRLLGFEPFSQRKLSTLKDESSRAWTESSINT

pIC50 (GHSR-1a [1])	EC50 (GHSR-1a [2]) [µM]	Structure (SMILES)	Mouse Food Intake effect (Male C57BL/6J mice; 10 mg/kg i.p.)	inhibition in vivo at 10 mg/kg (Male C57BL/6J mice; [3]) [%]	further results
8.52	0.01	COc1ccc(C(C)NC(=O)N(C)C2CCN(C)CC2(C)C)c(Cl)c1Cl (stereo not drawn)	NSE (10 mg/kg)	–	–
7.92	–	CC(NC(=O)N(C)C1CCN(C)CC1(C)C)c1cccc(Cl)c1Cl (stereo not drawn)	–	26	–
7.40	0.03	COc1ccc(C(C)NC(=O)N(C)C2CCN(C)CC2)c2ccccc12 (stereo not drawn)	NSE	–	Mouse Food Intake, activity up to (Male C57BL/6J mice; 30 mg/kg i.p.): ≤ 24 h; Mouse Food Intake % increase food intake (Male C57BL/6J mice; 30 mg/kg i.p., at 1 hr): 70%
7.19	–	CC(NC(=O)N(Cc1cccc(F)c1)C1CCN(C)CC1)c1cccc(Cl)c1Cl (stereo not drawn)	–	44	–
8.30	–	COc1cccc(CN(C(=O)N[C@H](C)c2cccc(Cl)c2Cl)C2CCN(C)CC2C)c1 (stereo partly drawn)	NSE (10 mpk)	–	–
7.18	0.02	COc1ccc(C(CO)NC(=O)N(C)C2CCN(C)CC2)c2ccccc12 (stereo not drawn)	–	47	–
7.15	–	CN1CCC(N(C)C(=O)NC(COCc2ccccc2)c2cccc(Cl)c2Cl)CC1 (stereo not drawn)	–	40	Mouse Food Intake effect (Male C57BL/6J mice; 3 mg/kg i.p.): NSE; Mouse Food Intake, activity up to (Male C57BL/6J mice; 10 mg/kg i.p.): ≤ 4 h; Mouse Food Intake, activity up to (Male C57BL/6J mice; 30 mg/kg i.p.): ≤ 2 h; inhibition in vivo at 30 mg/kg (Male C57BL/6J mice; [4]): 50%
7.12	18.7	CCN(C(=O)NC(CCc1cccc(OCc2cccnc2)c1)c1cccc2ccccc12)C1CCN(C)CC1 (stereo not drawn)	–	74	Mouse Food Intake, activity up to (Male C57BL/6J mice; 10 mg/kg i.p.): ≤ 24 h
–	0.0021	COc1ccc(C(C)NC(=O)N(O)C2CCN(C)CC2)c2ccccc12 (stereo not drawn)	–	–	–
8.30	0.006	C[C@@H](NC(=O)N(Cc1ccccc1)C1CCN(C)CC1(C)C)c1cccc2ccccc12 (stereo partly drawn)	–	–	Mouse Food Intake effect (Male C57BL/6J mice; 30 mg/kg i.p.): NSE (30 mg/kg)
7.66	16.8	CC(NC(=O)N(Cc1ccccc1)C1CCN(C)CC1)c1cccc(Cl)c1Cl (stereo not drawn)	–	47	–
6.92	0.009	CC(NC(=O)N(C)C1CCN(C)CC1)c1cccc(Cl)c1Cl (stereo not drawn)	NSE (10 mg/kg)	–	–
6.04	0.49	CN1CCC(N(C)C(=O)NC(CO)c2cccc3ccccc23)CC1 (stereo not drawn)	–	–	inhibition in vivo at 10 mg/kg (Male C57BL/6J mice; Mus musculus, ip, 10 mg/kg i.p., 'at to 24 hrs'): 27%
6.49	–	CCN(C(=O)NC(C)c1cccc2ccccc12)C1CCN(C)CC1 (stereo not drawn)	–	–	Mouse Food Intake, activity up to (Male C57BL/6J mice; 30 mg/kg i.p.): ≤ 24 h; inhibition in vivo at 30 mg/kg (Male C57BL/6J mice; [4]): 28%
7.42	–	CC(NC(=O)N(Cc1ccccc1Cl)C1CCN(C)CC1)c1cccc(Cl)c1Cl (stereo not drawn)	–	95	Mouse Food Intake, duration of activity (Male C57BL/6J mice; 3 mg/kg i.p., after 1 hr): no activity up to follow hrs; Mouse Food Intake, activity up to (Male C57BL/6J mice; 10 mg/kg i.p.): ≤ 24 h; Mouse Food Intake, activity up to (Male C57BL/6J mice; 30 mg/kg i.p.): ≤ 24 h; inhibition in vivo at 3 mg/kg (Male C57BL/6J mice; Mus musculus, ip, 3 mg/kg i.p., at 1 hr): 39%; inhibition in vivo at 30 mg/kg (Male C57BL/6J mice; Mus musculus, ip, 30 mg/kg i.p., at 2 hr): 70%
7.92	0.01	COc1ccc(C(C)NC(=O)N(C)C2CCN(C)CC2(C)C)c2ccccc12 (stereo not drawn)	NSE (10 mg/kg)	–	–
8.15	–	CC(NC(=O)N(Cc1ccccc1F)C1CCN(C)CC1(C)C)c1cccc(Cl)c1Cl (stereo not drawn)	NSE (10 mg/kg)	–	–
8.40	0.0082	COc1ccc(C(C)NC(=O)N(OC)C2CCN(C)CC2)c(Cl)c1Cl (stereo not drawn)	–	–	–
8.30	–	COc1cccc(CN(C(=O)NC(C)c2cccc(Cl)c2Cl)C2CCN(C)CC2(C)C)c1 (stereo not drawn)	NSE (10 mg/kg)	–	–
7.68	0.009	C[C@@H](NC(=O)N(C)C1CCN(C)CC1(C)C)c1cccc2ccccc12 (stereo partly drawn)	–	–	Mouse Food Intake, activity up to (Male C57BL/6J mice; 30 mg/kg i.p.): ≤ 8 h; inhibition in vivo at 30 mg/kg (Male C57BL/6J mice; Mus musculus, ip, 30 mg/kg i.p., at 4 h): 47%
